Reference: patent publication US20240327432A1, “THIOPHENE-PHENOTHIAZINE COMPOUNDS AND SYNTHESIS METHOD THEREOF, AS WELL AS APPLICATION THEREOF IN PREPARATION OF PHOTOTHERAPY MEDICINES” (Guangzhou Medical University, priority 2023, published 2024)
pIC50: −log10 of the molar value.

What was measured:
[1] = Fluorescence emission spectrum; assay type: physicochemical; conditions: for λem (maximum fluorescence emission wavelength): excitation 650 nm, solvent methanol; for ϕF (fluorescence quantum yield): ϕF of MB as reference (0.04, methanol)
Description: Detection of the thiophene-phenothiazine compounds prepared in Examples 1-5: the absorption spectrum of the thiophene-phenothiazine compound in an ethanol solution was measured by using a UV-visible spectrophotometer, and spectral properties of the thiophene-phenothiazine compound were analyzed according to Beer-Lambert law; […] with a wavelength of 650 nm, and results are shown in Table 1 and FIGS. 2-3.
(§1) • a. Absorbance was measured in ethanol. • b. During fluorescence emission spectrum measurement, an excitation wavelength was 650 nm, and a solvent was methanol. • c. ϕF of MB was used as a reference [ϕF=0.04, methanol].

[2] = test system: A549 cells; assay: Phototoxicity measurement (CCK-8), A549; assay type: cell-based, human; conditions: for pIC50: Homo sapiens, light or radiation study, 1 h incubation, 630 nm LED, 3.2 J cm^−2, then 24 h, read-out: PDK IC50 (phototoxicity)
Description: (§2) (1) Cell culture: HUVEC cells (human umbilical vein endothelial cells), A549 cells (human lung cancer cells), MCF-7 cells (human breast cancer cells), HeLa cells (human cervical cancer cells) and 4T1 cells (mouse breast cancer cells) were cultured in a DMEM high-glucose medium containing 10% fetal bovine serum and 1% penicillin-streptomycin at 37° C. and under a condition of a 5% carbon dioxide content. The HUVEC cells, the A549 cells, the MCF-7 cells, the HeLa cells and the 4T1 cells, at a logarithmic growth phase, were taken and inoculated into a 96-well plate, respectively, with approximately 1×10^4 cells per well, and incubation was performed overnight at 37° C. and under a condition of 5% CO2.
(§3) (3) Phototoxicity measurement: the cells were incubated in the dark with the compound of the present invention of different concentrations for 1 hour, rinsing was performed with PBS, a fresh culture solution was added, and the cells were irradiated with 630 nm LED light (light dose is 3.2 J cm^−2). Then the cells were incubated in the dark environment for 24 hours, and cell viability was measured by the CCK-8 method.

[3] = test system: 4T1 cells; assay: Phototoxicity measurement (CCK-8), 4T1; assay type: cell-based, mouse; conditions: for pIC50: 1 h incubation, 630 nm LED, 3.2 J cm^−2, then 24 h, read-out: PDK IC50 (phototoxicity)
Description: as §2, §3

[4] = test system: HeLa cells; assay: Dark toxicity measurement (CCK-8), HeLa; assay type: cell-based; conditions: Homo sapiens, 24 h in dark, read-out: DK IC50 (dark toxicity)
Description: as §2
(§4) (2) Dark toxicity measurement: the cells were incubated in a dark environment with the compound of the present invention of different concentrations for 24 hours, and cell viability was measured by a CCK-8 method.

[5] = Absorption spectrum by UV-visible spectrophotometer; assay type: physicochemical; conditions: measured in ethanol
Description: Detection of the thiophene-phenothiazine compounds prepared in Examples 1-5: the absorption spectrum of the thiophene-phenothiazine compound in an ethanol solution was measured by using a UV-visible spectrophotometer, and spectral properties of the thiophene-phenothiazine compound were analyzed according to Beer-Lambert law; and a fluorescence emission spectrum of the thiophene-phenothiazine compound in the ethanol solution was measured under excitation of light with a wavelength of 650 nm, and results are shown in Table 1 and FIGS. 2-3.
as §1

[6] = test system: HeLa cells; assay: Phototoxicity measurement (CCK-8), HeLa; assay type: cell-based, human; conditions: for pIC50: Homo sapiens, light or radiation study, 1 h incubation, 630 nm LED, 3.2 J cm^−2, then 24 h, read-out: PDK IC50 (phototoxicity)
Description: as §2, §3

[7] = test system: MCF-7 cells; assay: Dark toxicity measurement (CCK-8), MCF-7; assay type: cell-based; conditions: Homo sapiens, MCF7, 24 h in dark, read-out: DK IC50 (dark toxicity)
Description: as §2, §4

[8] = test system: A549 cells; assay: Dark toxicity measurement (CCK-8), A549; assay type: cell-based; conditions: Homo sapiens, 24 h in dark, read-out: DK IC50 (dark toxicity)
Description: as §2, §4

[9] = test system: MCF-7 cells; assay: Phototoxicity measurement (CCK-8), MCF-7; assay type: cell-based, human; conditions: for pIC50: Homo sapiens, MCF7, light or radiation study, 1 h incubation, 630 nm LED, 3.2 J cm^−2, then 24 h, read-out: PDK IC50 (phototoxicity)
Description: as §2, §3

[10] = test system: HUVEC cells; assay: Dark toxicity measurement (CCK-8), HUVEC; assay type: cell-based; conditions: Homo sapiens, 24 h in dark
Description: as §2, §4

[11] = test system: 4T1 cells; assay: Dark toxicity measurement (CCK-8), 4T1; assay type: cell-based, mouse; conditions: 24 h in dark, read-out: DK IC50 (dark toxicity)
Description: as §2, §4

[12] = test system: 4T1 subcutaneous tumors; conditions: comparison from prior knowledge; cited from earlier work
[13] = Singlet oxygen generation, DPBF steady-state method; assay type: physicochemical; conditions: 2 μM in EtOH, 630 nm LED, irradiation for 20 s
Description: The efficiency of producing singlet oxygen through photosensitization is an important index for evaluating the photosensitizers. In the example, a conventional steady-state method was used, 1,3-diphenylisobenzofuran (DPBF) was used as a scavenger, which irreversibly reacted with the singlet oxygen to cause attenuation of the DPBF. An attenuation rate of the DPBF reflects production efficiency of ^1O2. Concentrations of the DPBF in EtOH at multiple irradiation time periods were measured by using a UV/Vis spectrum method.

[14] = test system: subcutaneous breast cancer (4T1) tumor model; assay: In vivo PDT inhibition of breast cancer growth; design: species or system BALB/c mice; conditions: 21 days
Text: (§5) 7-week-old BALB/c female mice weighing 18 g±1 g (purchased from Zhejiang Vital River Laboratory Animal Technology Co., Ltd) were used to construct a subcutaneous breast cancer (4T1) tumor model. When tumor volumes of the BALB/c mice were approximately 100 mm^3, in vivo anti-tumor experiments began. When the tumor volumes of the BALB/c mice were approximately 200 mm^3, imaging experiments began.
The BALB/c mice with the tumor volumes of approximately 100 mm^3 were taken, and the tumor bearing mice were divided into 4 groups, namely groups A, B, C and D, with 5 mice in each group. The mice in the group A and the group B were injected with 1×PBS 100 μL via tail veins. In addition, the mice in the group C and the group D were injected with compound I-3 via the tail veins at a dose of 1.6 mg/kg; and after 2 hours, the mice in the group B and the group D were irradiated with a light source (655 nm, 300 mW cm^2) for 10 minutes. Body weights and tumor volumes of the mice were measured on the 2nd day, 4th day, 8th day, 12th day, 16th day, and 21st day, respectively. On the 21st day, approximately 0.8 mL of mouse blood was collected using an eyeball blood sampling method, of which 0.4 mL of the mouse blood was placed in an EDTA-2K anticoagulant tube, and the remaining 0.4 mL of the mouse blood was centrifuged for serum collection.

[15] = test system: 4T1 subcutaneous tumors; assay: Distribution in 4T1 subcutaneous tumors of mice (imaging); assay type: in vivo, BALB/c mice; conditions: 1.6 mg/kg via tail vein
Description: as §5
A solution of 10 mg/L was prepared from the compound I-3 of the present invention by using 1×PBS. The BALB/c mice with the tumor volumes of approximately 200 mm^3 were taken, and the solution was injected into tumor bearing mice via tail veins at a dose of 1.6 mg/kg. Imaging photos were taken at different times using Odyssey CLX, with excitation light of 680 nm and detection light of 720 nm. […] Therefore, the thiophene-phenothiazine compound of the present invention can be completely metabolized within 24 hours, effectively solving a metabolic problem in existing PDT treatment mentioned above.

[16] = Photostability under continuous LED irradiation; assay type: physicochemical; conditions: 630 nm LED, 106 mW cm^−2, FIG. 4
Description: Good photostability is a prerequisite for ensuring continuous generation of ROS by the photosensitizers under light excitation, which can effectively prevent decomposition of the photosensitizers after illumination, avoiding a decrease in a ROS generation rate with increasing illumination time. An LED light source (630 nm, 106 mW cm^−2) was used to continuously irradiate the compound (5 μM), and a UV-visible spectrophotometer was used to measure the absorption spectrum of the compound at 200-800 nm. The photostability of the compound was evaluated by comparing changes in maximum absorption values at 600-800 nm after different irradiation times.
Result diagrams of other compounds are similar to that of the compound I-3.

[17] = Mus musculus, light or radiation study

Row | Compound | λem (maximum fluorescence emission wavelength) [1] | ϕF (fluorescence quantum yield) [1] | PI (phototherapeutic index) [2] | pIC50 [2] | PI (phototherapeutic index) [3] | pIC50 [3, 17] | pIC50 [4] | λmax (maximum absorption wavelength) [5] | PI (phototherapeutic index) [6] | pIC50 [6] | pIC50 [7] | pIC50 [8] | PI (phototherapeutic index) [9] | pIC50 [9] | pIC50 [10] | pIC50 ([11]; Mus musculus) | also measured
1 | CCCCCCCNc1cc2c(c3sccc13)=Nc1ccc(N(CC)CC)cc1S=2Cl (stereo not shown) [Compound I-5] | 700 nm | 0.6 | 8.57 | 6.38 | 2.22 | 5.72 | 5.84 | 674 nm | 3.32 | 6.37 | 5.48 | 5.45 | 7.11 | 6.33 | 5.12 | 5.37 | –
2 | CCN(CC)c1ccc2c(c1)S(Cl)=c1cc(NC)c3ccsc3c1=N2 (stereo not shown) [Compound I-2] | 698 nm | 0.5 | 21.66 | 6.49 | 24.41 | 6.40 | 5.50 | 671 nm | 23.49 | 6.89 | 5.69 | 5.16 | 14.2 | 6.85 | 4.76 | 5.01 | –
3 | porfimer sodium | – | – | – | – | – | – | – | – | – | – | – | – | – | – | – | – | metabolic time in the bodies [12]: about ten weeks
4 | CN(C)c1ccc2nc3ccc(=[N+](C)C)cc-3sc2c1 [MB, Methylene blue, reference compound] | – | – | – | – | – | – | – | – | – | – | – | – | – | – | – | – | pIC50 [3]: 4.85; pIC50 [11]: 4.59
5 | CCCCCNc1cc2c(c3sccc13)=Nc1ccc(N(CC)CC)cc1S=2Cl (stereo not shown) [Compound I-4] | 701 nm | 0.5 | 11.09 | 6.51 | 4.16 | 5.88 | 5.72 | 673 nm | 4.32 | 6.36 | 5.46 | 5.46 | 9.05 | 6.41 | 4.98 | 5.26 | –
6 | CCN(CC)c1ccc2c(c1)S(Cl)=c1cc(N)c3ccsc3c1=N2 (stereo not shown) [Compound I-1] | 692 nm | 0.4 | 16.47 | 6.34 | 17.69 | 6.06 | 5.43 | 663 nm | 10.26 | 6.44 | 5.45 | 5.12 | 9.03 | 6.41 | 4.60 | 4.81 | –
7 | CCCNc1cc2c(c3sccc13)=Nc1ccc(N(CC)CC)cc1S=2Cl (stereo not shown) [Compound I-3] | 700 nm | 0.6 | 31.35 | 6.68 | 44.51 | 6.72 | 5.62 | 673 nm | 32.72 | 7.15 | 5.54 | 5.18 | 24.00 | 6.92 | 4.87 | 5.06 | photosensitive efficiency (1O2, DPBF attenuation) [13]: 80%; growth of tumor volumes ([14]; group C: 1.6 mg/kg i.v. alone, no irradiation): did not show tumor growth inhibition; growth of tumor volumes ([14]; group D: 1.6 mg/kg i.v. + light 655 nm, 10 minutes, after 2 hours): significantly inhibited; time within which metabolized in mice [15]: ≤ 24 h; time after which compound gradually accumulates in tumors ([15]; 4T1 tumor bearing mice): 1 h; time of maximum accumulation in the tumors ([15]; 4T1 tumor bearing mice): 2 h; imaging signal after 24 hours ([15]; 24 hours): basically not detected; change of maximum absorption value as irradiation time increases (photostability) [16]: does not show a significant change
